# Reference: patent publication US10696672B2 (Pliant Therapeutics, Inc., priority 2016, dated 2020)
# Molecular target: recombinant human integrin αvβ6 (Homo sapiens (Human), UniProt P06756+P18564)
# Test: Solid phase integrin αvβ6 binding assay
# Settings: plate-coated integrin; recombinant TGFβ1 LAP 0.67 ug/ml as ligand; 2 hours at 25° C.; read-out: αvβ6 Inhibition IC50 (nM) - range
# Method: Example B1—Solid Phase Integrin αvβ6 Binding Assay
# Microplates were coated with recombinant human integrin αvβ6 (2 ug/ml) in PBS (100 ul/well 25° C., overnight). The coating solution was removed, washed with wash buffer (0.05% Tween 20; 0.5 mM MnCl2; in 1×TBS). Plate was blocked with 200 ul/well of Block Buffer (1% BSA; 5% sucrose; 0.5 mM MnCl2; in 1×TBS) at 37° C. for 2 h. Dilutions of testing compounds and recombinant TGFβ1 LAP (0.67 ug/ml) in binding buffer (0.05% BSA; 2.5% sucrose; 0.5 mM MnCl2; in 1×TBS) were added. The plate was incubated for 2 hours at 25° C., washed, and incubated for 1 hour with Biotin-Anti-hLAP. Bound antibody was detected by peroxidase-conjugated streptavidin. The IC50 values for testing compounds were calculated by a four-parameter logistic regression.
# The compounds tested were compound samples prepared according to procedures described in the Synthetic Examples section, with the stereochemical purity as indicated in the Examples indicated.
# recombinant human integrin αvβ6, sequence (P06756 31-992): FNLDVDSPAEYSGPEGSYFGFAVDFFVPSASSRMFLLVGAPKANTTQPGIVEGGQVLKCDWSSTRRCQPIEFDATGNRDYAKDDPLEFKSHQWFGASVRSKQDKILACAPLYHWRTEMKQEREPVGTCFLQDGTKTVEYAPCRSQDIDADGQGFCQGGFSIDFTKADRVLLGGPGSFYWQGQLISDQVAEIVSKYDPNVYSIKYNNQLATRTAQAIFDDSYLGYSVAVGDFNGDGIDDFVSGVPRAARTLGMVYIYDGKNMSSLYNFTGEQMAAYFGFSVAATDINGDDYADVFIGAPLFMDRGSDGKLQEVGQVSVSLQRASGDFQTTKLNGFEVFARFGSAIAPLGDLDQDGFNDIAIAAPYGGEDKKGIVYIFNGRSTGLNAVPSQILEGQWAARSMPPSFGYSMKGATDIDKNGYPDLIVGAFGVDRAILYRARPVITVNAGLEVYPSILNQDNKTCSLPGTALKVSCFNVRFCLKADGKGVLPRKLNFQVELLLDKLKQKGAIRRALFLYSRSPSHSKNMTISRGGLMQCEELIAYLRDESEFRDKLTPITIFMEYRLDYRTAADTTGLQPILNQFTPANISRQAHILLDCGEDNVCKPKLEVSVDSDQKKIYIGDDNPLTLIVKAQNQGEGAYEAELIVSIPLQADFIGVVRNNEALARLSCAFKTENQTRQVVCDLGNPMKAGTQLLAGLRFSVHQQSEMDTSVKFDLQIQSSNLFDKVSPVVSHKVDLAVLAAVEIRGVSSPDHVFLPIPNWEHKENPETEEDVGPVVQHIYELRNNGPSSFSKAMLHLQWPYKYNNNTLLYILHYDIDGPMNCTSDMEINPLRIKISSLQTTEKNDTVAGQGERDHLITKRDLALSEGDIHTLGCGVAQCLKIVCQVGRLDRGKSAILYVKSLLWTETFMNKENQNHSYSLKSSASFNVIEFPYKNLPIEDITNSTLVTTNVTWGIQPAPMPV
# recombinant human integrin αvβ6, sequence (P18564 22-707): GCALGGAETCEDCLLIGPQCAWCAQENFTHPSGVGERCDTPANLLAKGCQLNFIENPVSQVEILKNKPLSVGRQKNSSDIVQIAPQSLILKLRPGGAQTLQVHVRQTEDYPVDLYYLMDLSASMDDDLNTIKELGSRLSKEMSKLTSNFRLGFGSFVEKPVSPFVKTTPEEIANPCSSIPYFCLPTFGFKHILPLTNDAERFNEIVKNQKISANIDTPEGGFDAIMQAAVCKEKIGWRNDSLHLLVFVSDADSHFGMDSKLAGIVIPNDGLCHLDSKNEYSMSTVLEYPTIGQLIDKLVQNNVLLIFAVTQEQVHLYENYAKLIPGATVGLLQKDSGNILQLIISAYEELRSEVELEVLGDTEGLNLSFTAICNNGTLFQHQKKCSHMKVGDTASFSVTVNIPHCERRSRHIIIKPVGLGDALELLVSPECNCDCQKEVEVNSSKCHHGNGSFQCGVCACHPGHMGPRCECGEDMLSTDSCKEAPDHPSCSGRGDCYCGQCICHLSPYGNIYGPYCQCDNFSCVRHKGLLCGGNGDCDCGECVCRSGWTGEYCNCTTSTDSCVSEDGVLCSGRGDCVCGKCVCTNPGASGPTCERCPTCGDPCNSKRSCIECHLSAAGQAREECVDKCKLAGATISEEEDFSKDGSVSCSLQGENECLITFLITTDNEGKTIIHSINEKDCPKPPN
row,SMILES,IC50 [nM]
1,O=C(N[C@@H](CCN1CC(CCc2ccc3c(n2)NCCC3)CC(F)(F)C1)C(=O)O)c1ccccc1 (stereo partly drawn) [Compound 41],50 to 250
2,Cc1cc(C)n(-c2cccc(C(=O)N[C@@H](CCN3CCC[C@@](F)(CCc4ccc5c(n4)NCCC5)C3)C(=O)O)c2)n1 [Compound 53],< 50
3,O=C(N[C@H](CCN1CC[C@@H](CCc2ccc3c(n2)NCCC3)C1)C(=O)O)c1cccc(-c2ncco2)c1 [Compound 88],< 50
4,O=C(N[C@@H](CCN1CC[C@@H](CCc2ccc3c(n2)NCCC3)C1)C(=O)O)c1cc(F)cc(C(F)(F)F)c1 [Compound 76],< 50
5,Cc1cc(C)n(-c2cccc(C(=O)NC(CCN3CC[C@@H](CCc4ccc5c(n4)NCCC5)C3)C(=O)O)c2)n1 (stereo partly drawn) [13a and 13c],< 50
6,"CC(C)(C)C(=O)N[C@H](CCN1CC[C@@H](CCc2ccc3c(n2)NCCC3)C1)C(=O)O [Compound 1c, (R)-2-pivalamido-4-((R)-3-(2-(5,6,7,8-tetrahydro-1,8-naphthyridin-2-yl)ethyl)pyrrolidin-1-yl)butanoic acid]",< 50
7,O=C(N[C@@H](CCN1CC(OCCc2ccc3c(n2)NCCC3)C1)C(=O)O)[C@@H]1CCN(c2ccccn2)C1 [Compound 131],50 to 250
8,O=C(N[C@H](CCN1CC[C@@H](CCc2ccc3c(n2)NCCC3)C1)C(=O)O)c1cccc(-c2cncs2)c1 [Compound 84],< 50
9,O=C(N[C@@H](CCN1CCC[C@@](F)(CCc2ccc3c(n2)NCCC3)C1)C(=O)O)c1cc(F)cc(F)c1 [Compound 97],50 to 250
10,O=C(N[C@@H](CCN1CC[C@@H](CCc2ccc3c(n2)NCCC3)C1)C(=O)O)[C@@H]1CCN(c2ccccn2)C1 [Compound 47],< 50
11,"O=C(N[C@@H](CCN1CC[C@@H](CCc2ccc3c(n2)NCCC3)C1)C(=O)O)c1cccc2cn[nH]c12 [Compound 26a, (S)-2-(1H-indazole-7-carboxamido)-4-((R)-3-(2-(5,6,7,8-tetrahydro-1,8-naphthyridin-2-yl)ethyl)pyrrolidin-1-yl)butanoic acid]",< 50
12,"O=C(N[C@@H](CCN1CC[C@@H](CCc2ccc3c(n2)NCCC3)C1)C(=O)O)c1ccccc1C(F)(F)F [Compound 8a, (S)-4-((R)-3-(2-(5,6,7,8-tetrahydro-1,8-naphthyridin-2-yl)ethyl)pyrrolidin-1-yl)-2-(2-(trifluoromethyl)benzamido)butanoic acid]",< 50
13,O=C(N[C@@H](CCN1CC[C@@H](OCCc2ccc3c(n2)NCCC3)C1)C(=O)O)c1c(Cl)cccc1Cl [Compound 114],250 to 1000
14,Cn1cc(-c2nn(C)c3c(C(=O)N[C@@H](CCN4CC[C@@H](CCc5ccc6c(n5)NCCC6)C4)C(=O)O)cccc23)cn1 [Compound 102],250 to 1000
15,"O=C(N[C@@H](CCN1CC[C@@H](CCc2ccc3c(n2)NCCC3)C1)C(=O)O)c1ccc(N2CCOCC2)cc1 [Compound 16a, (S)-2-(4-morpholinobenzamido)-4-((R)-3-(2-(5,6,7,8-tetrahydro-1,8-naphthyridin-2-yl)ethyl)pyrrolidin-1-yl)butanoic acid]",> 1000
16,CCCCC(=O)N1CCC[C@@H](C(=O)N[C@@H](CCN2CC[C@@H](CCc3ccc4c(n3)NCCC4)C2)C(=O)O)C1 [Compound 78],< 50
17,Cc1cc(C)n(-c2cccc(C(=O)N[C@@H](CCN3CC[C@@H](OCc4ccc5c(n4)NCCC5)C3)C(=O)O)c2)n1 [Compound 113],> 1000
18,O=C(N[C@@H](CCN1CC(CCc2ccc3c(n2)NCCC3)C1)C(=O)O)[C@H]1CCN(c2ccccn2)C1 [Compound 138],250 to 1000
19,Cn1cc(C(=O)N[C@@H](CCN2CC[C@@H](CCc3ccc4c(n3)NCCC4)C2)C(=O)O)cn1 [Compound 69],50 to 250
20,CCC(CC)C(=O)N[C@@H](CCN1CC[C@@H](CCc2ccc3c(n2)NCCC3)C1)C(=O)O [Compound 95],< 50

# Second part, the molecule after the results:
row,IC50 [nM],SMILES
1,< 50,O=C(N[C@@H](CCN1CC[C@@H](CCc2ccc3c(n2)NCCC3)C1)C(=O)O)c1cccs1 [Compound 51]
2,> 1000,O=C(N[C@@H](CCN1CC[C@@H](OCc2ccc3c(n2)NCCC3)C1)C(=O)O)c1ccccc1 [Compound 112]
3,50 to 250,"O=C(N[C@@H](CCN1CC[C@@H](CCc2ccc3c(n2)NCCC3)C1)C(=O)O)c1cccnc1 [Compound 19a, (S)-2-(nicotinamido)-4-((R)-3-(2-(5,6,7,8-tetrahydro-1,8-naphthyridin-2-yl)ethyl)pyrrolidin-1-yl)butanoic acid]"
4,< 50,O=C(O)[C@H](CCN1CC[C@@H](CCc2ccc3c(n2)NCCC3)C1)NC(=O)[C@@H]1CCCN1CC1CCC1 [Compound 92]
5,< 50,O=C(NC(CCN1CC[C@@H](CCc2ccc3c(n2)NCCC3)C1)C(=O)O)c1ccccc1 (stereo partly drawn) [3a and 3c]
6,< 50,O=C(NC(CCN1CC[C@@H](CCc2ccc3c(n2)NCCC3)C1)C(=O)O)c1ccc2ocnc2c1 (stereo partly drawn) [31a and 31c]
7,< 50,O=C(N[C@@H](CCN1CC[C@@H](CCc2ccc3c(n2)NCCC3)C1)C(=O)O)c1cccc(-c2cccs2)c1 [Compound 55]
8,> 1000,O=C(N[C@@H](CCN1CC(CCc2ccc3c(n2)NCCC3)C1)C(=O)O)C1CCCN1Cc1ccccc1 (stereo partly drawn) [Compound 135]
9,50 to 250,O=C(N[C@@H](CCN1CCC[C@@](F)(CCc2ccc3c(n2)NCCC3)C1)C(=O)O)c1cc(F)cc(C(F)(F)F)c1 [Compound 105]
10,< 50,Cn1nccc1C(=O)N[C@@H](CCN1CC[C@@H](CCc2ccc3c(n2)NCCC3)C1)C(=O)O [Compound 49]
11,< 50,O=C(O)[C@H](CCN1CC[C@@H](CCc2ccc3c(n2)NCCC3)C1)NC(=O)[C@@H]1CCCCN1C(=O)C1CCC1 [Compound 74]
12,< 50,"O=C(N[C@@H](CCN1CC[C@@H](CCc2ccc3c(n2)NCCC3)C1)C(=O)O)c1ccc2cnn(C(F)F)c2c1 [Compound 29a, (S)-2-(1-(difluoromethyl)-1H-indazole-6-carboxamido)-4-((R)-3-(2-(5,6,7,8-tetrahydro-1,8-naphthyridin-2-yl)ethyl)pyrrolidin-1-yl)butanoic acid]"
13,< 50,O=C(N[C@@H](CCN1CC[C@@H](CCc2ccc3c(n2)NCCC3)C1)C(=O)O)C1CCOCC1 [Compound 38]
14,< 50,O=C(N[C@@H](CCN1CC[C@@H](CCc2ccc3c(n2)NCCC3)C1)C(=O)O)c1ccncn1 [Compound 70]
15,> 1000,"Cc1cc(C)n(-c2cccc(C(=O)N[C@@H](CCN3CCC(CCc4ccc5c(n4)NCCC5)CC3)C(=O)O)c2)n1 [Compound 12a, (S)-2-(3-(3,5-dimethyl-1H-pyrazol-1-yl)benzamido)-4-(4-(2-(5,6,7,8-tetrahydro-1,8-naphthyridin-2-yl)ethyl)piperidin-1-yl)butanoic acid]"
16,< 50,Cn1ncc2ccc(C(=O)N[C@@H](CCN3CCC[C@](F)(CCc4ccc5c(n4)NCCC5)C3)C(=O)O)cc21 [Compound 110]
17,< 50,O=C(N[C@@H](CCN1CC[C@@H](CCc2ccc3c(n2)NCCC3)C1)C(=O)O)c1cccc(-c2ncco2)c1 [Compound 59]
18,< 50,O=C(Cc1ccccc1Cl)N[C@@H](CCN1CC[C@@H](CCc2ccc3c(n2)NCCC3)C1)C(=O)O [Compound 75]
19,< 50,Cc1cccc(C)c1C(=O)NC(CCN1CC[C@@H](CCc2ccc3c(n2)NCCC3)C1)C(=O)O (stereo partly drawn) [4a and 4c]
